Entries after “also recorded” stand apart in the source; their conditions may differ. Like-named read-outs stand apart in the source and are kept apart here.

Results on three molecules are retold here after patent publication US20130210851A1, “Crystalline forms of a hexahydrofuro[3,4-c]quinoline derivative” (Boehringer Ingelheim International GmbH, priority 2011, published 2013).

Holding throughout (type): physicochemical
The nature of data set [1]: Hygroscopic behaviour, water sorption isotherms (DVS-1). As to conditions: 25° C.; for hygroscopicity (in words): sorption isotherms 10% to 90% r.h.; for uptake of water: up to 90% r.h. The procedure: To study the hygroscopic behaviour of this material, sorption isotherms are registered on a DVS-1 water sorption monitor from Surface Measurement Systems. Adsorption and desorption isotherms are performed at 25° C. with 10% r.h. step intervals ranging from 10% r.h. up to 90% r.h.

Data set [2] is described as follows: Solubility of the saturated solution in aqueous media. As to conditions: thermodynamic from solid, 48 h shaking at room temperature, read-out: solubility RT - values.
A short description of data set [3]: Intrinsic dissolution rate in aqueous media (rotating disc method). Particulars: 37° C., 200 rpm. On the procedure: The intrinsic dissolution rate of the crystalline hydrochloride salt form of (3R,9S)-4-isopropyl-7,7-dimethyl-3-(4-(trifluoromethyl)phenyl)-2′,3′,5′,6,6′,7,8,9-octahydro-3H-spiro[furo[3,4-c]quinoline-1,4′-pyran]-9-ol is determined in aqueous media covering a range of pH 1.1-7.4 using the rotating disc method which maintains a constant surface area. 5 mg drug substance is compressed to form a disc at 356.1 N for 60 s. These discs are mounted to specially designed sample holders which fit into a Sotax dissolution tester. The dissolution media (37° C.) are stirred at 200 rpm. Samples are automatically withdrawn every second minute from the dissolution vessel and assayed via UV spectrophotometry. The intrinsic dissolution rate expressed in μg/cm^2/min is calculated using the slope of the concentration versus time plot and from the linear portion of the slope of the dissolution curve, volume of dissolution medium (35 ml) and area (diameter: 2 mm) of the exposed disk.

Data set [4] is described as follows: Solid state stability under harsh stress conditions. An excerpt:
Under all applied severe stress conditions only very low or minor decomposition (Σ</=about 6% degradation impurities measured as peak area percentage from HPLC-diagrams using a standard gradient technique) can be observed.

In the case of `Br.CC(C)c1nc2c(c3c1[C@@H](c1ccc(C(F)(F)F)cc1)OC31CCOCC1)[C@@H](O)CC(C)(C)C2` [crystalline hydrobromide salt form, Hydrogen Bromide Salt of (3R,9S)-4-isopropyl-7,7-dimethyl-3-(4-(trifluoromethyl)phenyl)-2′,3′,5′,6,6′,7,8,9-octahydro-3H-spiro[furo[3,4-c]quinoline-1,4′-pyran]-9-ol], in data set [1], the “hygroscopicity (in words)” value was “not hygroscopic” and the uptake of water entry is “about 0.9%”.
For `CC(C)c1nc2c(c3c1[C@@H](c1ccc(C(F)(F)F)cc1)OC31CCOCC1)[C@@H](O)CC(C)(C)C2` [compound of formula (I), (3R,9S)-4-isopropyl-7,7-dimethyl-3-(4-(trifluoromethyl)phenyl)-2′,3′,5′,6,6′,7,8,9-octahydro-3H-spiro[furo[3,4-c]quinoline-1,4′-pyran]-9-ol], in that order: “not hygroscopic” and “about 0.2%”.
As for `CC(C)c1nc2c(c3c1[C@@H](c1ccc(C(F)(F)F)cc1)OC31CCOCC1)[C@@H](O)CC(C)(C)C2.Cl` [crystalline hydrochloride salt form, Hydrogen Chloride Salt of (3R,9S)-4-isopropyl-7,7-dimethyl-3-(4-(trifluoromethyl)phenyl)-2′,3′,5′,6,6′,7,8,9-octahydro-3H-spiro[furo[3,4-c]quinoline-1,4′-pyran]-9-ol], the solubility at 48 h in data set [2] (McIlvaine buffer, aqueous buffer, McIlvaine pH 2.2, intrinsic pH 2.0) was 1600 µg/mL; in data set [2] (McIlvaine buffer, aqueous buffer, McIlvaine pH 3.0, intrinsic pH 3.0), 400 µg/mL; in data set [2] (McIlvaine buffer, aqueous buffer, McIlvaine pH 4.0, intrinsic pH 4.0), 90 µg/mL; in data set [2] (McIlvaine buffer, aqueous buffer, McIlvaine pH 4.5, intrinsic pH 4.6), 30 µg/mL; in data set [2] (McIlvaine buffer, aqueous buffer, McIlvaine pH 5.0, intrinsic pH 5.1), 3 µg/mL; in data set [2] (McIlvaine buffer, aqueous buffer, McIlvaine pH 6.0, intrinsic pH 6.2), < 3 µg/mL. Further, the solubility at 48 h in data set [2] (McIlvaine buffer, aqueous buffer, McIlvaine pH 6.8, intrinsic pH 7.0) was < 3 µg/mL; in data set [2] (McIlvaine buffer, aqueous buffer, McIlvaine pH 7.4, intrinsic pH 7.7, determined by LC/MS), 0.26 µg/mL; in data set [2] (Sorensen buffer, aqueous buffer, Sorensen pH 10.0, intrinsic pH 9.6), < 3 µg/mL; in data set [2] (acetate buffer, aqueous buffer, Acetate pH 3.0, intrinsic pH 3.0) it was 200 µg/mL; in data set [2] (acetate buffer, aqueous buffer, Acetate pH 4.0, intrinsic pH 4.2) it was 60 µg/mL; in data set [2] (acetate buffer, aqueous buffer, Acetate pH 5.0, intrinsic pH 5.3), 6 µg/mL. In addition, the solubility at 48 h in data set [2] (simulated gastric fluid, 0.01N HCl, intrinsic pH 1.9) is 1900 µg/mL; in data set [2] (simulated gastric fluid, 0.1N HCl, intrinsic pH 0.9), 4100 µg/mL; in data set [2] (FaSSIF (Fasted State Simulated Intestinal), intrinsic pH 6.5) it was 20 µg/mL; in data set [2] (FeSSIF (Fed State Simulated Intestinal), intrinsic pH 5.0) it was 30 µg/mL; in data set [2] (water, intrinsic pH 1.6), 3100 µg/mL. Also, the dissolution rate came out at 230 μg/cm^2/min in data set [3] (0.1N HCl); 250 μg/cm^2/min in data set [3] (pH 2.2 (McIlvaine)); 60 μg/cm^2/min in data set [3] (pH 3.0 (McIlvaine)); 10 μg/cm^2/min in data set [3] (pH 4.0 (McIlvaine)); 10 μg/cm^2/min in data set [3] (pH 4.5 (McIlvaine)); 10 μg/cm^2/min in data set [3] (water). Also, the “hygroscopicity (in words)” value in data set [1] is recorded as “not hygroscopic; also recorded: non-hygroscopic”. Further, the “decomposition, sum of degradation impurities (peak area percentage from HPLC)” value in data set [4] (all stress conditions: 24 hours at 105° C., 72 hours at 60° C. and 70% rel. humid., 24 hours in a Xenotester) was ≤ 6%. Moreover, the “solid state stability (in words)” value in data set [4] (harsh stress conditions for solid state) is listed as “stable in the solid state”.
